Assays:
[1] = tested on: Ovcar-3 cells; assay: Apoptotic nuclei in Ovcar-3 cells (DAPI staining); format: cell-based, human; settings: for effect on CDDP-induced apoptosis: simultaneous treatment with CDDP
Experimental: In order to assess the effects of CDDP, P4 and PGRMC1's role in regulating the viability of ovarian cancer cells, Ovcar-3 cells were used. Ovcar-3 cells were maintained in culture as described by Kim et al (23). Briefly, Ovcar-3 cells were cultured in RPMI-1640 medium (Invitrogen, Grand Island, N.Y.) supplemented with 10% fetal bovine serum (HyClone, Logan, Utah), 100 U/ml penicillin G, 100 ug/ml streptomycin (Invitrogen, Grand Island, N.Y.), at 37° C. in a humidified atmosphere of 5% CO2 incubator. The Ovcar-3 cells were cultured for 72 hours before each experiment.
PGRMC1 siRNA treatment was used to deplete PGRMC1 levels (28). In this protocol, PGRMC1 depletion was performed by transfecting PGRMC1 siRNA using siPORT NeoFX transfection protocol outlined by Ambion. Studies were conducted in which either scramble (control) siRNA (Cat#: AM4611) or one of three pre-designed human PGRMC1 siRNAs (Ambion siRNA ID#: 18430, 18340, 18248) were transfected at a concentration of 30 nM. Levels of PGRMC1 mRNA and protein were assessed by real-time PCR and western blot, respectively as previously described. In addition and immunocytochemical analysis confirmed that PGRMC1 siRNA (ID#: 18248) was an effective PGRMC1 siRNA. This siRNA targeted Exon 1 of PGRMC1 (forward, 5′-[…]tt and reverse, 5′-[…]tt). Based on this, Ovcar-3 cells were cultured for 3 days and then treated for 3 days with either scramble or PGRMC1 siRNA (ID#: 18248). The cells were then treated for 24 h with CDDP (15 μM) and P4 (1 μM) and observed apoptosis as described below.
Finally, a blocking antibody study was conducted as previously described (25). Ovcar-3 were plated and cultured for 3 days as previously described. The cells were then washed and cultured for 24 h with serum-supplemented containing CDDP (15 μM) and P4 (1 μM) and either rabbit IgG (20 μg/ml) or the antibody to PGRMC1 (20 μg/ml). After culture the cells were rinsed in Krebs/Hepes buffer and stained to detect apoptotic nuclei as described below.
Regardless of the experimental design, in situ DNA staining was used to identify apoptotic nuclei by adding DAPI directly to the culture medium at a final concentration of 2 μg/ml. The cultures were incubated for 10 min at 37° C. in the dark. After staining, the cells were observed under epi-fluorescent optics. Under these conditions only cells with condensed or fragmented nuclei were stained intensely with DAPI. The DAPI-stained cells also stained with YOPRO-1, a well-known nuclear stain that identifies apoptotic cells (19, 25, 28). These cells were considered to be apoptotic (25). At least 100 cells/culture well were counted and the percentage of apoptotic nuclei in each well determined. For the data shown in FIGS. 12 and 15, cells were selected randomly. In FIG. 6 the apoptotic status (i.e. DAPI staining; blue fluorescence) was determined for 100 transfected cells per well as indicated by their GFP (i.e. green) fluorescence.

[2] = tested on: human granulosa/luteal cells; assay: Apoptotic nuclei in human granulosa/luteal cells after serum withdrawal (TUNEL, in situ DNA staining); format: cell-based
Experimental: After the oocytes were removed, follicular aspirates were pooled and centrifuged at 250×g for 10 minutes. The cell pellet was resuspended in serum-free culture medium, layered on HISTOPAQUE-1077 and centrifuged for 30 minutes at 400×g. After centrifugation, the opaque interface containing the granulosa/luteal cells was carefully aspirated and transferred into a 15 ml sterile conical centrifuge tube. The cells were then washed by resuspending the cells in 12 ml of PBS and centrifuging them at 250×g for 10 minutes. This was repeated two additional times. The cell pellet was then resuspended in 1 ml of 0.25% trypsin-EDTA solution and incubated for 5 minutes to dissociate the cells. After trypsinization, 5 ml of serum-supplemented medium was added and the cells were centrifuged at 250×g for 10 minutes. The cells were then resuspended in serum-supplemented medium, counted in a hemacytometer and resuspended to yield a final concentration 1 million cells/ml.
Plastic lab-tek slides (BD Bioscience, Bedford, Mass.), which had been previously coated with Growth Factor Reduced Matrigel Matrix (BD Bioscience, Bedford, Mass.), were plated at about 60,000 cells per well in 0.5 ml of serum-supplemented medium with 2 U/ml (IU) of hCG. The medium was changed after 24 hours to remove any remaining blood cells or non-attached granulosa/luteal cells and the cultures continued for two additional days. The cultures were then subjected to the various experimental treatments as outlined below.
Both TUNEL and in situ DNA staining were used to identify apoptotic nuclei. For the TUNEL assay human granulosa/luteal cells were cultured for 5 hours in serum-free medium and then fixed in 10% formalin. The cells were stained using the Apoptag Peroxidase In Situ kit staining according to manufacture's instructions (Chemicon, Temecula, Calif.). In situ DNA staining was done by adding hydroethidine directly to the culture medium at a final concentration of 3.5 μg/ml. The cultures were incubated for 15 minutes at room temperature in the dark. After staining, the cells observed under epi-fluorescent optics. Under these conditions only cells with condensed or fragmented nuclei were stained intensely with hydroethidine. These cells were considered to be apoptotic in accordance with prior publications in the field. At least 100 cells/culture well were counted and the percentage of apoptotic nuclei in each well determined.
Human granulosa/luteal cells were plated on lab tek slides and cultured for three days as previously described. […] After culture the cells were raised in Krebs/Hepes buffer and stained to detect apoptotic nuclei as taught by Engmann et al., J. of Clinical Endocrinology and Metabolism 91(12): 4962-4968 (2006). One hundred cells in each chamber were counted and the percentage of apoptotic nuclei determined as previously described.

[3] = tested on: PGRMC1; assay: PGRMC1 mRNA and protein levels in Ovcar-3 cells after siRNA (real-time PCR, western blot, immunocytochemistry); format: cell-based, human; settings: 72 h treatment; vs scramble control
Experimental: Real Time PCR. Quantitative measurements of PGR and PGRMC1 mRNA were made on cDNA samples provided by OriGene. […] Primers were evaluated with NCBI blast to confirm product specificity and products were designed to cross intron/exon borders. Primers used were: PGR forward [NT] ID NO: 13) and reverse [NT] ID NO: 14) and PGRMC-1 forward [NT] ID NO: 15) and reverse [NT] ID NO: 16). Quantitative real time PCR was performed on the MyiQ Single-Color Real-Time PCR Detection System (Bio-Rad, Hercules, Calif.). Samples were resuspended in twenty-five μl of the iQ SyberGreen Supermix (Bio-Rad) containing appropriate primers. Relative gene expression was evaluated with Bio-Rad iQ5 software using the ΔCT method (24). Each gene was evaluated on two separate identical array plates, which were loaded with equal amounts of cDNA per well as described by the manufacturer. End products were also run on agarose gels to confirm product size. Immunohistochemistry and immunocytochemistry were also used to assess the localization of PGRMC1 in formalin-fixed paraffin-embedded tissue sections of ovarian cancers and Ovcar-3 cells, respectively. […] Levels of PGRMC1 mRNA and protein were assessed by real-time PCR and western blot, respectively as previously described. […]

Q: How did the “percentage of cells that undergo apoptosis (dose dependence)” value ([1]; 10% fetal bovine serum, FIG. 12B) turn out when `N.N.[Cl][Pt][Cl]` [CDDP, cis-diamminedichloroplatinum(II)] was run?
A: Its value is “dose-dependent increase”.

Q: What about the “percentage of cells in which apoptosis is induced” value ([1]; in the presence of serum, within 24 h) of the same compound?
A: The value was 40 to 60%.

Q: Which “percentage of apoptotic nuclei” value ([2]; 25 and 50 μM doses of RU486) does the source give for `CC#C[C@]1(O)CC[C@H]2[C@@H]3CCC4=CC(=O)CCC4=C3[C@@H](c3ccc(N(C)C)cc3)C[C@@]21C` [RU486] here?
A: The value was “greater than 70%”.

Q: For `CC(=O)[C@H]1CC[C@H]2[C@@H]3CCC4=CC(=O)CC[C@]4(C)[C@H]3CC[C@]12C` [progesterone, 4-Pregnene-3,20-dione], which “reduction of the killing effect of CDDP” value ([1]; addition of P4 to CDDP in serum) is on record?
A: Its value is “about 40%”.

Q: What about the “concentration of maximum effect on inhibition of apoptosis induced by serum withdrawal” value ([1]; serum withdrawal) of the same compound?
A: The value was about 1 µM.

Q: What about the “effect on rate of apoptosis in serum-free media” value ([1]; serum-free media for 5 h, p<0.05) of the same compound?
A: The value was “attenuated”.

Q: What about the “effect on CDDP-induced apoptosis” value ([1]; 5 h of culture, p<0.05) of the same compound?
A: Its value is “attenuated”.

Q: What about the “effect on CDDP-induced apoptosis” value ([1]; 24 h of culture, p<0.05) of the same compound?
A: The value was “attenuated”.

Q: What about the “effect on apoptosis due to serum-withdrawal in presence of IgG or IgY” value ([2]; 1 μM progesterone, IgG or IgY control) of the same compound?
A: The value was “suppressed apoptosis”.

Q: What about the “effect on apoptosis due to serum withdrawal” value ([2]; all doses tested) of the same compound?
A: Its value is “suppressed apoptosis”.

Q: What about the “suppression of serum-withdrawal induced apoptosis in presence of RU486” value ([2]; progesterone 1 μM, RU486 5 μM) of the same compound?
A: The value was “still capable of suppressing serum-withdrawal induced apoptosis”.

Q: And the “ability to override the effect of RU486” value ([2]; progesterone 1 μM, RU486 25 and 50 μM)?
A: The value was “could not override the effect of RU486”.

Q: And the “lowest effective dose suppressing apoptosis” value ([2]; serum-free medium)?
A: Its value is 10 nM.

Q: “PGRMC1 siRNA (ID#: 18248): Ambion human PGRMC1 siRNA targeting Exon 1, nucleotides 365-386; SEQ ID NO: 7 and 8 (chain 1 GGUGUUCGAUGUGACCAAATT; chain 2 UUUGGUCACAUCGAACACCTT; chemistry not given here)” was tested. Which “PGRMC1 levels by immunocytochemical analysis” value [3] did it give?
A: The value was “suppress PGRMC1 levels”.

Q: And the “enhancement of the killing effect of CDDP in the presence of P4” value ([1]; PGRMC1 depleted with siRNA, CDDP and P4)?
A: The value was at least 50%.

Q: And the “effect on P4's ability to inhibit CDDP-induced apoptosis” value ([1]; siRNA 3 days, then 24 h CDDP (15 μM) and P4 (1 μM), p<0.05)?
A: Its value is “attenuated”.

Source: patent US8252532B2 (University of Connecticut, priority 2006, dated 2012)
